Measurements published in patent US4916068A, “Bioconversion production of ascorbic acid with L-galactono-1,4-oxidase” (Kraft, Inc., priority 1984, dated 1990).

Columns and labels:
preferred yeast strains = assay: utilization of galactose derivatives for L-ascorbic acid formation; type: cell-based; settings: compared with L-galactono-gamma-lactone
Source text: The D-galactose 18 is converted by catalytic oxidation to provide D-galacturonic acid 22. Processes to carry out this oxidative step for D-sugar acids are well known in the art and have been described in U.S. Pat. No. 2,265,121 by T. Reichstein. A variety of catalytic agents, e.g., platinum or palladium catalysts may be employed to convert blocked D-galactose (acetone) to the D-galacturonic acid product. The unblocked D-galacturonic acid may then be reduced by an appropriate reduction step such as reduction with gaseous hydrogen in the presence of a suitable hydrogenation catalyst such as Raney nickel, or palladium, to produce L-galactonic acid 24. Processes to carry out this chemical reduction are well known in the art such as described by H. Isbell, J. Res. Nat. Bur. Stds., 33, 45-60 (1944). Removal of water by distillation and condensation of the desalted L-sugar acid induces the formation of L-galactono-gamma-lactone 26 which is utilized in the microbiological conversion process of the present invention to form L-ascorbic acid. […] Keto-derivatives such as 5-Keto-L-Galactonic acid, are not utilized by the preferred yeast strains particularly described herein. The L-galactono-gamma-lactone 26, ethanol 16, and suitable organic and inorganic nutrients are combined to provide a fermentation medium 28 for a selected L-ascorbic acid overproducer.

Candida norvegensis = assay: Assimilation tests (identification of the yeast); type: cell-based; settings: C. norvegensis MF-56, MF-78 and parent CBS 2145
Source text: The morphological, cultural and physiological characteristics of the mutant strain C. norvegensis Kraft, Inc. MF-56 ATCC 20686, the mutant strain C. norvegensis Kraft, Inc. MF-78 ATCC 20732, and the parent strain C. norvegensis CBS 2145 are consistent with the yeast description provided in The Yeasts, a taxononomic study (J. Lodder (Ed.) 1970, North Holland Publishing Co., Amsterdam) and A New Key to the Yeasts (J. A. Barnett & R. J. Parkhurst (Ed) 1974, North Holland Publishing Co., Amsterdam).

[1] = system: Candida norvegensis CBS 1911; assay: aerobic bioconversion run with ethanol carbon source; type: cell-based; settings: 48 hours; for Other redox Compounds / Total Ascorbate / L-Ascorbate: 0.5% substrate; for L-Ascorbate: HPLC with electrochemical detection; for Optical Density: SMl + 1.5% ethanol + 0.5% substrate, 30° C.
Protocol: (§1) Two yeast strains, Candida norvegensis CBS 1911 and Candida utilus NRRL Y-900 are utilized with an ethanol carbon source in separate bioconversion runs with each of two different substrates, L-galactono-1,4-lactone or D-galacturonic acid-methyl ester. The bioconversion runs are carried out under aerobic conditions in a 500 milliliter low actinic flask containing 50 ml of the biconversion medium. The bioconversions were carried out at a temperature of 30° C. for 48 hours with agitation provided by a skaker operating at 200 rpm. The medium for the C. norvegensis runs was the SMl medium previously described plus 1.5% ethanol plus 0.5% substrate. The medium for the C. utilus runs were SMl plus 1.5% ethanol plus 0.2% substrate.

[2] = system: Candida utilus NRRL Y-900; assay: as above; type: cell-based; settings: 48 hours; for Other redox Compounds / Total Ascorbate / L-Ascorbate: 0.2% substrate; for L-Ascorbate: HPLC with electrochemical detection; for Optical Density: SMl + 1.5% ethanol + 0.2% substrate, 30° C.
Protocol: as §1

[3] = system: L-Galactono-1,4-Lactone Oxidase; assay: L-galactono-1,4-lactone oxidase activity, comparison of yeast strains; type: biochemical; settings: C. norvegensis (CBS 1911)
Protocol: An assay mixture is provided which contains 2mM L-galactono-1,4-lactone and 50 mM Na-Citrate pH 6.8 in a total volume of 3 ml. The mixture is incubated at 37° C. in a shaker bath for up to 30 minutes. The reaction is stopped by adding 0.3 ml of 50% TCA. The precipitated protein is removed by centrifugation and the supernatant is assayed for L-ascorbate by high performance liquid chromatography analysis with electrochemical detection and by 2,6,dichloroindophenol titration.
A series of 5 detergents: (1) nonylphenol POE-9 (NP-9), (2) polydet (P-40), (3) octylglucoside, (4) (3-[3-cholamindopropyl)-dimethylammonio]1-propane sulfonate (CHAPS), and (5) (3-[3-cholamindopropyl)-dimethyl ammonio]-2-hydroxy-1-propane sulfonate).2H2 O (CHAPSO) were tested. […] Biochem. & Biophys., 191, 47a (1978)].

[4] = substrate: O=C1O[C@H]([C@@H](O)CO)[C@@H](O)[C@@H]1O; assay: mitochondrial assay for L-galactono-1,4-lactone oxidase activity; type: biochemical, Saccharomyces Cerevisiae; settings: other: intact mitochondrial system, substrate 0.1 mM to 50 mM; 37.0 °C
Source text: Two pounds of Red Star baker's yeast (Saccharomyces Cerevisiae), which is not overproductive in L-Ascorbic acid were disrupted according to the method of Tzagoloff [J. Biol. Chem., 244, 5020 (1969)]. The frozen powder (900 gm) was transferred to 1.51 of a solution consisting of 0.4 M sucrose, 0.05 M Tris(hydroxymethyl) amino methane (Tris-HCl) pH 8.2, with one millimolar ethylene diamine tetracetic acid (EDTA). The pH of the suspension was adjusted to 7.5 with sodium hydroxide and the suspension was subsequently homogenized in a blender for 45 seconds. The homogenate was centrifuged at 2500×g for 15 minutes at 4° C. and the cell debris was discarded. The supernatant was centrifuged at 62000×g in a Shar-les centrifuge. The pellet (mitochondria) was saved and resuspended in 250 ml of a solution containing 0.25 M sucrose and 0.01 M Tris-HCl pH 7.5 and frozen.
An assay mixture is provided which contains 2mM L-galactono-1,4-lactone and 50 mM Na-Citrate pH 6.8 in a total volume of 3 ml. The mixture is incubated at 37° C. in a shaker bath for up to 30 minutes. The reaction is stopped by adding 0.3 ml of 50% TCA. […]
The specific activity of this sample was calculated to be 2.5 ×10^-3 micromoles/min/mg protein. […]

O=C(O)[C@@H](O)[C@H](O)[C@H](O)C(=O)CO [5-Keto-L-Galactonic acid]
utilization as substrate for L-ascorbic acid (preferred yeast strains): not utilized

O=C[C@H](O)[C@@H](O)[C@H](O)CO [D-Xylose]
Assimilation of carbon compounds (Candida norvegensis): + latent or

COC(=O)[C@@H](O)[C@H](O)[C@H](O)[C@@H](O)C=O [D-galacturonic acid-methyl ester]
Other redox Compounds [1]: 17.5 µg/mL | Total Ascorbate [1]: 473 ug/100 ml | L-Ascorbate [1]: 3.5 µg/mL | Optical Density [1]: 2.60 | Other redox Compounds [2]: 1.3 µg/mL | Total Ascorbate [2]: 4,383 ug/100 ml | L-Ascorbate [2]: 12.0 µg/mL | Optical Density [2]: 8.50

O=[N+]([O-])[O-].[K+] [KNO3]
Assimilation of KNO3 (Candida norvegensis): negative

O=C(O)[C@@H](O)[C@H](O)[C@H](O)[C@@H](O)CO [L-galactonic acid]
utilization as substrate for L-ascorbic acid (preferred yeast strains): yields of L-ascorbic acid are reduced

O=C1O[C@H]([C@@H](O)CO)[C@@H](O)[C@@H]1O [L-galactono-1,4-lactone]
Km [3]: 1300 µM | Other redox Compounds [1]: 10.1 µg/mL | Total Ascorbate [1]: 10,625 ug/100 ml | L-Ascorbate [1]: 92.8 µg/mL | Optical Density [1]: 2.05 | Other redox Compounds [2]: 1.8 µg/mL | Total Ascorbate [2]: 15,905 ug/100 ml | L-Ascorbate [2]: 50.0 µg/mL | Optical Density [2]: 8.50

B1: L-galactono-1,4-lactone oxidase (Saccharomyces cerevisiae S288C) (protein)
chain: MSTIPFRKNYVFKNWAGIYSAKPERYFQPSSIDEVVELVKSARLAEKSLVTVGSGHSPSNMCVTDEWLVNLDRLDKVQKFVEYPELHYADVTVDAGMRLYQLNEFLGAKGYSIQNLGSISEQSVAGIISTGSHGSSPYHGLISSQYVNLTIVNGKGELKFLDAENDPEVFKAALLSVGKIGIIVSATIRVVPGFNIKSTQEVITFENLLKQWDTLWTSSEFIRVWWYPYTRKCVLWRGNKTTDAQNGPAKSWWGTKLGRFFYETLLWISTKIYAPLTPFVEKFVFNRQYGKLEKSSTGDVNVTDSISGFNMDCLFSQFVDEWGCPMDNGLEVLRSLDHSIAQAAINKEFYVHVPMEVRCSNTTLPSEPLDTSKRTNTSPGPVYGNVCRPFLDNTPSHCRFAPLENVTNSQLTLYINATIYRPFGCNTPIHKWFTLFENTMMVAGGKPHWAKNFLGSTTLAAGPVKKDTDYDDFEMRGMALKVEEWYGEDLKKFRKIRKEQDPDNVFLANKQWAIINGIIDPSELSD
notes: The pellet (mitochondria) was saved and resuspended in 250 ml; endogenous in cells; host or cells: mitochondria of Red Star baker's yeast (Saccharomyces cerevisiae)
Km [4]: 1600 µM | Vmax [4]: 0.34 µmol/min
